Reference: patent US20100285963A1, “SUBSTITUTED FLUOROALKOXYPHENYLSULFONYLUREAS” (priority 2001, published 2010)
Counter-ions that a name gives are not always drawn.

Columns and labels:
weeds [1] = experiment: Pre-emergence test (greenhouse), damage to weeds; type: in vivo
Method: (§1) Solvent: 5 parts by weight of acetone
(§2) Emulsifier: 1 part by weight of alkylaryl polyglycol ether
(§3) To produce a suitable preparation of active compound, 1 part by weight of active compound is mixed with the stated amount of solvent, the stated amount of emulsifier is added and the concentrate is diluted with water to the desired concentration.
(§4) Seeds of the test plants are sown in normal soil. After 24 hours, the soil is sprayed with the preparation of active compounds such that the particular amount of active compound desired is applied per unit area. The concentration of active compound in the spray liquor is chosen such that the particular amount of active compound desired is applied in 1000 liters of water per hectare.
(§5) After three weeks, the degree of damage to the plants is rated in % damage in comparison to the development of the untreated control. The figures denote: • 0%=no effect (like untreated control) • 100%=total destruction

[2] = test system: crop plants, such as, for example, wheat and soya; experiment: Pre-emergence test (greenhouse), tolerance by crop plants; type: in vivo; conditions: after three weeks
Method: as §1, §2, §3, §4, §5

weeds [3] = experiment: Post-emergence test (greenhouse), damage to weeds; type: in vivo
Method: as §1, §2
(§6) To product a suitable preparation of active compound, 1 part by weight of active compound is mixed with the stated amount of solvent, the stated amount of emulsifier is added and the concentrate is diluted with water to the desired concentration.
(§7) Test plants of a height of 5-15 cm are sprayed with the preparation of active compound such that the particular amounts of active compound desired are applied per unit area. The concentration of the spray liquor is chosen such that the particular amounts of active compound desired are applied in 10001 of water/ha.
(§8) After three weeks, the degree of damage to the plants is rated in % damage in comparison to the development of the untreated control.
(§9) The figures denote: • 0%=no effect (like untreated control) • 100%=total destruction

[4] = test system: crop plants, such as, for example, corn, wheat and sugar beet; experiment: Post-emergence test (greenhouse), tolerance by crop plants; type: in vivo; conditions: after three weeks
Method: as §1, §2, §6, §7, §8, §9

[5] = test system: apple mildew pathogen Podosphaera leucotricha; experiment: Podosphaera test (apple)/protective; type: in vivo; conditions: protective, application rate of 100 g/ha, evaluation 10 days after the inoculation
Method: Solvent: 49 parts by weight of acetone
as §2
To produce a suitable preparation of active compound, 1 part by weight of active compound is mixed with the stated amounts of solvent and emulsifier, and the concentrate is diluted with water to the desired concentration.
To test for protective activity, young plants are sprayed with the preparation of active compound at the stated application rate. After the spray coating has dried on, the plants are inoculated with an aqueous spore suspension of the apple mildew pathogen Podosphaera leucotricha. The plants are then placed in a greenhouse at about 23° C. and a relative atmospheric humidity of about 70%.
Evaluation is carried out 10 days after the inoculation. 0% means an efficacy which corresponds to that of the control, whereas an efficacy of 100% means that no infection is observed.

[6] = 30 g of a.i./ha, after three weeks
[7] = 8 g of a.i./ha, after three weeks, Table B6
[8] = 125 g of a.i./ha, after three weeks
[9] = 250 g of a.i./ha, after three weeks
[10] = 30 g of a.i./ha, after three weeks, Table B2

CCCc1cccc(OCCCF)c1S(=O)(=O)NC(=O)Nc1nc(OC)nc(OC)n1 [(8)]
% damage Chenopodium (weeds [1]; [6]): 90%
% damage Galium (weeds [1]; [6]): 90%
% damage Stellaria (weeds [1]; [6]): 100%
% damage Viola (weeds [1]; [6]): 100%
% damage Wheat ([2]; 30 g of a.i./ha): 0%
% damage Datura (weeds [3]; [7]): 90%
% damage Ipomoea (weeds [3]; [7]): 100%
% damage Matricaria (weeds [3]; [7]): 95%
% damage Solanum (weeds [3]; [7]): 100%
% damage Stellaria (weeds [3]; [7]): 95%
% damage Maize ([4]; 8 g of a.i./ha, Table B6): 10%
% damage Wheat ([4]; 8 g of a.i./ha, Table B6): 0%

COc1nc(C)nc(NC(=O)NS(=O)(=O)c2c(C)cccc2OCCF)n1 [Example 1, N-[2-(2-fluoroethoxy)-6-methylphenylsulfonyl]-N′-(4-methoxy-6-methyl-1,3,5-triazin-2-yl)urea]
melting point: 161 °C
efficacy against mildew of apples (Podosphaera leucotricha) [5]: 100%
activity against weeds (weeds [1]; soil sprayed 24 hours after sowing, rated after three weeks as % damage vs untreated control): very strong activity
activity against weeds (weeds [3]; test plants of 5-15 cm sprayed, rated after three weeks as % damage vs untreated control): very strong activity

COc1nc(C)nc(NC(=O)NS(=O)(=O)c2c(C)cccc2OCCF)n1 (as salt: sodium) [Example 2, N-[2-(2-fluoroethoxy)-6-methylphenyl-sulfonyl]-M-(4-methoxy-6-methyl-1,3,5-triazin-2-yl)urea sodium salt]
melting point: 185 °C

CCCc1cccc(OCCCF)c1S(=O)(=O)NC(=O)Nc1nc(OC)cc(OC)n1 [(25)]
% damage Chenopodium (weeds [1]; [8]): 90%
% damage Datura (weeds [1]; [8]): 90%
% damage Echinochloa (weeds [1]; [8]): 90%
% damage Stellaria (weeds [1]; [8]): 90%
% damage Viola (weeds [1]; [8]): 100%
% damage Alopecurus (weeds [1]; [9]): 95%
% damage Amaranthus (weeds [1]; [9]): 100%
% damage Avena fatua (weeds [1]; [9]): 90%
% damage Galium (weeds [1]; [9]): 95%
% damage Setaria (weeds [1]; [9]): 100%
% damage Xanthium (weeds [1]; [9]): 100%
% damage Wheat ([2]; 125 g of a.i./ha): 0%
% damage Abutilon (weeds [3]; [8]): 95%
% damage Alopecurus (weeds [3]; [8]): 90%
% damage Amaranthus (weeds [3]; [8]): 100%
% damage Datura (weeds [3]; [8]): 100%
% damage Solanum (weeds [3]; [8]): 100%
% damage Abutilon (weeds [3]; [9]): 100%
% damage Alopecurus (weeds [3]; [9]): 90%
% damage Amaranthus (weeds [3]; [9]): 100%
% damage Avena fatua (weeds [3]; [9]): 90%
% damage Galium (weeds [3]; [9]): 100%
% damage Setaria (weeds [3]; [9]): 100%
% damage Sinapis (weeds [3]; [9]): 100%
% damage Wheat ([4]; 125 g of a.i./ha): 10%

CCCc1cccc(OCCCF)c1S(=O)(=O)NC(=O)Nc1nc(C)nc(OC)n1 [(7)]
% damage Chenopodium (weeds [1]; [6]): 90%
% damage Echinochloa (weeds [1]; [6]): 90%
% damage Galium (weeds [1]; [6]): 90%
% damage Stellaria (weeds [1]; [6]): 100%
% damage Viola (weeds [1]; [6]): 100%
% damage Wheat ([2]; 30 g of a.i./ha): 0%
% damage Abutilon (weeds [3]; [10]): 100%
% damage Alopecurus (weeds [3]; [10]): 90%
% damage Amaranthus (weeds [3]; [10]): 100%
% damage Datura (weeds [3]; [10]): 100%
% damage Solanum (weeds [3]; [10]): 100%
% damage Wheat ([4]; 30 g of a.i./ha, Table B2): 0%
